We go through two compounds from BindingDB's records for doi:10.1021/jm800052b (Genentech, 2008).

The target of assay [1] is T1, Aurora kinase A (Homo sapiens, UniProt O14965).
T1 sequence (O14965 whole entry): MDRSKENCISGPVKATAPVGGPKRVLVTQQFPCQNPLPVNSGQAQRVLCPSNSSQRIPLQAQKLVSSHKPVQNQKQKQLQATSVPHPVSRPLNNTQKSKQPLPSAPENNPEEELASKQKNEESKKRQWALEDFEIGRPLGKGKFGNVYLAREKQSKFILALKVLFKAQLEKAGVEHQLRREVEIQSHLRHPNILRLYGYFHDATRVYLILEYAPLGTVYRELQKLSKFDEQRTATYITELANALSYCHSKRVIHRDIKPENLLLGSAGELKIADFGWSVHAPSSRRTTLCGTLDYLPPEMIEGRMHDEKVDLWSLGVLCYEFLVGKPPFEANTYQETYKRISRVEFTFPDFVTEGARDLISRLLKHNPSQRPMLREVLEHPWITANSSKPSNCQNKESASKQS
The assay is described as follows: Enzyme Inhibition Assay. The conditions noted are these: pH 7.5; 22 °C. As to the method:
(§1) Aurora kinase was assayed in ELISA format using a GST fusion of the N-terminus of Histone H3 as substrate. Plates were coated with substrate, and then blocked with I-block (Tropix) in PBS. After kinase reaction, product was detected by incubation with antiphosphohistone H3 (Ser10) 6G3 mouse monoclonal antibody and sheep-antimouse HRP conjugate, followed by washing and addition of TMB substrate.

The target in assay [2] is Aurora kinase B (Homo sapiens, UniProt Q96GD4). The assay can be described thus: Enzyme Inhibition Assay. The following applies: pH 7.5; 22 °C. As to the method:
as §1

The structures appear in SMILES notation.

Usually IC50 stands for the concentration needed to halve the response being measured.

Aurora kinase B, sequence (Q96GD4 whole entry): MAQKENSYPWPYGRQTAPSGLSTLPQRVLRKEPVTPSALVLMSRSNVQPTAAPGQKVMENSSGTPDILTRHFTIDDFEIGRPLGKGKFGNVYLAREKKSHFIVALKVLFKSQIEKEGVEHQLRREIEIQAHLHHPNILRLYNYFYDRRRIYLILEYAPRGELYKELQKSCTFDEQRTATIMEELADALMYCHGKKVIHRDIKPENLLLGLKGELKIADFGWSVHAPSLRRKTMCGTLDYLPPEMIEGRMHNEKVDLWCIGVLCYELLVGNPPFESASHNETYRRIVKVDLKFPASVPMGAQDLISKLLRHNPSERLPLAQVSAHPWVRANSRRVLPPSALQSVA

For `Cc1[nH]nc2c1CCCc1c-2[nH]c2ccccc12` [5-methyl-3,4,17-triazatetracyclo[8.7.0.0^{2,6}.0^{11,16}]heptadeca-1(10),2,5,11,13,15-hexaene], the IC50 was found to be 42 nM in assay [1] and 22 nM in assay [2].

Take `Cc1[nH]nc2c1CCCc1c-2[nH]c2cc3c(cc12)NC(=O)C3(C)C` [7,7,16-trimethyl-5,11,14,15-tetraazapentacyclo[10.8.0.0^{2,10}.0^{4,8}.0^{13,17}]icosa-1(12),2,4(8),9,13,16-hexaen-6-one]: the IC50 in assay [2] is < 2 nM.
